Data published in PubChem BioAssay (NCI).
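Tested at 5 concentrations; 48 h exposure; 96-well plates; endpoints linearly interpolated, else capped at highest concentration. TGI is the concentration that stops growth completely.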

Assays:
Test in all cases: NCI anticancer screen, dose series, 48 h
[1] = system: SK-MEL-5 melanoma
[2] = system: SNB-19 CNS
[3] = system: LOX IMVI melanoma
[4] = system: UO-31 renal
[5] = system: A498 renal
[6] = system: 786-0 renal
[7] = system: NCI-H522 lung
[8] = system: SNB-78 CNS
[9] = system: K-562 leukemia
[10] = system: HCT-116 colon
[11] = system: U251 CNS
[12] = system: DMS 114 small cell lung
[13] = system: M14 melanoma
[14] = system: COLO 205 colon
[15] = system: NCI-H226 lung
[16] = system: SF-295 CNS
[17] = system: HOP-18 NSCLC
[18] = system: MALME-3M melanoma
[19] = system: UACC-257 melanoma
[20] = system: HT29 colon
[21] = system: SK-MEL-2 melanoma
[22] = system: SF-539 CNS
[23] = system: SK-MEL-28 melanoma
[24] = system: CCRF-CEM leukemia
[25] = system: DMS 273 small cell lung
[26] = system: SR leukemia
[27] = system: CAKI-1 renal
[28] = system: OVCAR-3 ovarian
[29] = system: RXF 393 renal
[30] = system: NCI-H23 lung
[31] = system: ACHN renal
[32] = system: SW-620 colon
[33] = system: UACC-62 melanoma
[34] = system: A549 NSCLC
[35] = system: SNB-75 CNS
[36] = system: RXF-631 renal
[37] = system: OVCAR-4 ovarian
[38] = system: M19-MEL melanoma
[39] = system: HCT-15 colon
[40] = system: EKVX NSCLC
[41] = system: IGROV1 ovarian
[42] = system: SF-268 CNS
[43] = system: HL-60(TB) leukemia
[44] = system: HOP-92 NSCLC
[45] = system: OVCAR-8 ovarian
[46] = system: LXFL 529 NSCLC
[47] = system: SN12C renal
[48] = system: SK-OV-3 ovarian
[49] = system: HOP-62 NSCLC
[50] = system: HCC-2998 colon
[51] = system: DLD-1 colon
[52] = system: RPMI-8226 leukemia
[53] = system: OVCAR-5 ovarian
[54] = system: MOLT-4 leukemia
[55] = system: NCI-H460 lung
[56] = system: KM12 colon
[57] = system: XF 498 CNS
[58] = system: KM20L2 colon
[59] = system: TK-10 renal

CC(C)N(C(=O)C12C3C4C1C1C2C3C41C#N)C(C)C (centres undefined)
TGI [1]: > 100 µM | TGI [2]: > 100 µM | TGI [3]: > 67.2 µM | TGI [4]: > 100 µM | TGI [5]: > 100 µM | TGI [6]: > 100 µM | TGI [7]: > 100 µM | TGI [8]: > 100 µM | TGI [9]: > 100 µM | TGI [10]: > 100 µM | TGI [11]: > 100 µM | TGI [12]: > 100 µM | TGI [13]: > 100 µM | TGI [14]: > 100 µM | TGI [15]: > 100 µM | TGI [16]: > 100 µM | TGI [17]: > 100 µM | TGI [18]: > 100 µM | TGI [19]: > 100 µM | TGI [20]: > 100 µM | TGI [21]: > 100 µM | TGI [22]: > 100 µM | TGI [23]: > 100 µM | TGI [24]: > 85.1 µM | TGI [25]: > 100 µM | TGI [26]: 45 µM | TGI [27]: > 100 µM | TGI [28]: > 100 µM | TGI [29]: > 100 µM | TGI [30]: > 100 µM | TGI [31]: > 100 µM | TGI [32]: > 100 µM | TGI [33]: > 100 µM | TGI [34]: > 100 µM | TGI [35]: > 100 µM | TGI [36]: > 100 µM | TGI [37]: > 100 µM | TGI [38]: > 100 µM | TGI [39]: > 100 µM | TGI [40]: > 100 µM | TGI [41]: > 100 µM | TGI [42]: > 100 µM | TGI [43]: > 59 µM | TGI [44]: > 100 µM | TGI [45]: > 100 µM | TGI [46]: > 100 µM | TGI [47]: > 100 µM | TGI [48]: > 100 µM | TGI [49]: > 100 µM | TGI [50]: > 100 µM | TGI [51]: > 100 µM | TGI [52]: > 68.1 µM | TGI [53]: > 100 µM | TGI [54]: > 100 µM | TGI [55]: > 100 µM | TGI [56]: > 100 µM | TGI [57]: > 100 µM | TGI [58]: > 100 µM | TGI [59]: > 100 µM
